What all share (type): in vivo
Data set [1] has as its system 3rd-instar larvae of Agrotis ipsilon (Rottemberg). Kind of data set: Joint toxicity of I-72 + SYP-1620, fludioxonil, insect-dipping, Example 80, Table 80. As for the experimental part: (§1) Preparation of the pesticide solution: according to different test requirements, the test samples were accurately weighed respectively with an electronic analytical balance. The technical pesticides were dissolved in acetone, and then diluted with 0.1% Tween 80 water into a series of pesticide solutions with a certain concentration gradient according to the experimental design dosage.
(§2) The target insects were dipped into the pesticide solution for 10 s and then taken out. Excess pesticide solution was absorbed with filter paper. […] A treatment without the pesticide was set as the blank control.
(§3) The number of dead and live insects was investigated 72 hours later. The corrected mortality rate was calculated using the Abbott's formula, and statistical analysis was performed with the DPS data processing software to obtain the toxicity regression equation and LC50 value of each single test pesticide and each mixture of different ratios.

Data set [2] relates to Unaspis yanonensis Kuwana nymphs. Nature of the data set: Joint toxicity of I-72 + afidopyropen, Example 76, Table 76. As to conditions: A = compound I-72, B = afidopyropen; citrus leaf dipping; 120 hours. As for the experimental part:
Test target: Unaspis yanonensis Kuwana nymphs.
as §1
Experimental method: the activity of the mixture against Unaspis yanonensis Kuwana nymphs on citrus was determined by adopting the dipping method. First, the collected citrus leaves with Unaspis yanonensis Kuwana nymphs were treated with the pesticide solution in the order from low dosage to high dosage according to the experimental design. After air-drying, the petioles were kept moist with degreased cotton, and then the leaves were placed in a Petri dish, with 3 replicates for each treatment. In addition, a blank control was set up.
The treated test materials were placed in an observation room, and the temperature, humidity and illumination of the observation room could be adjusted as needed. The number of dead and live insects was investigated 120 hours later. […] Then, the co-toxicity coefficient of each ratio was calculated using the Sun Y-P method to evaluate the mixing effect (the same as in Example 1).

For data set [3], the system named is adult Tetranychus urticae Koch. Kind of data set: Joint toxicity of I-72 + cyetpyrafen, Example 85, Table 85. As to conditions: A = compound I72, B = cyetpyrafen; potted-seedling spraying; 72 hours. As for the experimental part:
Test target: adult Tetranychus urticae Koch, a sensitive strain reared indoors.
as §1
(§4) Experimental method: the activity of the mixture against the adult Tetranychus urticae Koch was determined by adopting the potted-seedling spraying method. First, the adult Tetranychus urticae Koch of uniform size were transferred onto the leaves of kidney bean seedlings at the stage when the first pair of true leaves was fully expanded. After the adult mites had stabilized, the base number was counted. Then, the uniform spraying was performed with the pesticide solution in the order from low to high dose according to the experimental design, with 1.5 mL for each seedling and 3 replicates for each treatment. […]
The treated test materials were placed in an observation room, and the temperature, humidity and illumination of the observation room could be adjusted as needed. […] Then, the co-toxicity coefficient of each ratio was calculated using the Sun Y-P method to evaluate the mixing effect (the same as in Example 1).

For data set [4], the system named is Aphis gossypii Glover nymphs. Nature of the data set: Joint toxicity of I-72 + flonicamid, Example 74, Table 74. As to conditions: A = compound I-72, B = flonicamid; cotton leaf spraying; 48 hours. As for the experimental part:
Test target: Aphis gossypii Glover nymphs, a sensitive strain reared indoors.
as §1
Experimental method: first, cotton leaves with uniform and consistent Aphis gossypii were selected, with about 30-40 insects on each leaf. Then, they were evenly sprayed with the pesticide solution in the order from low dosage to high dosage according to the experimental design, with 1.5 mL for each leaf and 3 replicates for each treatment. In addition, a blank control was set up.
(§5) The treated test materials were placed in an observation room, and the temperature, humidity and illumination of the observation room could be adjusted as needed. The number of dead and live insects was investigated 48 hours later. […] Then, the co-toxicity coefficient of each ratio was calculated using the Sun Y-P method to evaluate the mixing effect (the same as in Example 1).

Data set [5] deals with Thrips flavus Schrank nymphs. Nature of the data set: Joint toxicity of I-72 + flonicamid, Example 78, Table 78. As to conditions: A = compound I-72, B = flonicamid; eggplant seedling spraying; 48 hours. The procedure:
Test target: Thrips flavus Schrank nymphs.
as §1
Experimental method: first, eggplant seedlings with Thrips flavus Schrank were selected, and the base number was counted. Then, uniform spraying was performed with the pesticide solution in the order from low to high doses according to the experimental design, with 2 mL for each seedling and 3 replicates for each treatment. In addition, a blank control was set up.
as §5

For data set [6], the system named is 3rd-instar larvae of Agrotis ipsilon (Rottemberg). Kind of data set: whole plant or invertebrate. As to conditions: A = compound I-72, B = metalaxyl-M; insect-dipping; 72 hours. As for the experimental part: Test conditions: temperature: 24-26° C., humidity: RH 60%, and illumination: L:D=14:10
as §1, §2, §3

The test system of data set [7] is Myzus persicae (Sulzer) nymphs. Nature of the data set: Joint toxicity of I-72 + pymetrozine, Example 73, Table 73. As to conditions: in Brassica oleracea, 48 h. The procedure:
Test target: Myzus persicae (Sulzer) nymphs, a sensitive strain reared indoors.
as §1
Experimental method: first, cabbage leaves with uniform and consistent Myzus persicae (Sulzer) were selected, with about 30-40 insects on each leaf. Then, they were evenly sprayed with the pesticide solution in the order from low dosage to high dosage according to the experimental design, with 1.5 mL of the solution for each leaf and 3 replicates for each treatment. In addition, a blank control was set up.
The treated test materials were placed in an observation room, and the temperature, humidity and illumination of the observation room could be adjusted as needed. The number of dead and live insects was investigated 48 hours later. […] Then, the co-toxicity coefficient of each ratio was calculated using the Sun Y-P method to evaluate the mixing effect, as in Example 1.

The subject of data set [8] is 3rd-instar larvae of Ostrinia furnacalis Guenee. Kind of data set: Joint toxicity of I-72 + pymetrozine, Example 79, Table 79. As to conditions: in Zea mays, 72 h. As for the experimental part:
Test target: 3rd-instar larvae of Ostrinia furnacalis Guenee.
as §1
Experimental method: first, tender corn stems were selected and dipped in the prepared pesticide solution for 10 s in the order from low dosage to high dosage according to the experimental design. After natural air-drying in the shade, they were placed in a 9-cm-diameter Petri dish with filter paper, and uniform and healthy test insects were introduced, with 10 insects for each treatment and 3 replicates for each treatment. In addition, a blank control was set up.
(§6) The treated test materials were placed in an observation room, and the temperature, humidity and illumination of the observation room could be adjusted as needed. The number of dead and live insects was investigated 72 hours later. […] Then, the co-toxicity coefficient of each ratio was calculated using the Sun Y-P method to evaluate the mixing effect (the same as in Example 1).

Data set [9] has as its system adult Bemisia tabaci (Gennadius). Kind of data set: Joint toxicity of I-72 + pyraclostrobin, cotton seedling spraying, Example 83, Table 83. As to conditions: 72 h. As for the experimental part: as §1
The corrected mortality rate was calculated using the Abbott's formula, and statistical analysis was performed with the DPS data processing software to obtain the toxicity regression equation and LC50 value of each single test pesticide and each mixture of different ratios.

Data set [10] has as its system adult Tetranychus cinnabarinus (Boisduval). Nature of the data set: Joint toxicity of I-72 + pyridaben, Example 84, Table 84. As to conditions: 72 h. The procedure: Test target: adult Tetranychus cinnabarinus (Boisduval), a sensitive strain reared indoors.
as §1
as §4, with “adult Tetranychus cinnabarinus (Boisduval) was determined” for “adult Tetranychus urticae Koch was determined”, “adult Tetranychus cinnabarinus of uniform” for “adult Tetranychus urticae Koch of uniform”
The treated test materials were placed in an observation room, and the temperature, humidity and illumination of the observation room could be adjusted as needed. […] Then, the co-toxicity coefficient of each ratio was calculated using the Sun Y-P method to evaluate the mixing effect, as in Example 1.

For data set [11], the system named is Bemisia tabaci (Gennadius) nymphs. Nature of the data set: Joint toxicity of I-72 + pyrifluquinazon, Example 77, Table 77. As to conditions: A = compound I-72, B = pyrifluquinazon; cotton leaf-disk spraying; 96 hours. The procedure: Test target: Bemisia tabaci (Gennadius) nymphs, a sensitive strain reared indoors.
as §1
Experimental method: first, cotton leaves with neat and consistent Bemisia tabaci (Gennadius) nymphs were selected and made into leaf disks, with about 20 insects on each leaf disk. Then, they were evenly sprayed with the pesticide solution in the order from low dosage to high dosage according to the experimental design, with 1.5 mL for each leaf and 3 replicates for each treatment. In addition, a blank control was set up.
The treated test materials were placed in an observation room, and the temperature, humidity and illumination of the observation room could be adjusted as needed. The number of dead and live insects was investigated 96 hours later. […] Then, the co-toxicity coefficient of each ratio was calculated using the Sun Y-P method to evaluate the mixing effect (the same as in Example 1).

The test system of data set [12] is Nilaparvata lugens (Stal) nymphs. Nature of the data set: Joint toxicity of I-72 + triflumezopyrim, Example 75, Table 75. As to conditions: A = compound I-72, B = triflumezopyrim; potted-seedling spraying; 72 hours. As for the experimental part: Test target: Nilaparvata lugens (Stal) nymphs, a sensitive strain reared indoors.
as §1
Experimental method: the activity of the mixture against the Nilaparvata lugens (Stal) nymphs was determined by adopting the potted-seedling spraying method. First, rice seedlings were planted in culture pots. Uniform spraying was performed with the pesticide solution in the order from low dosage to high dosage according to the experimental design, with 2 mL for each seedling. Then, Nilaparvata lugens nymphs of uniform size were transferred onto the rice seedlings, with 3 replicates for each treatment. In addition, a blank control was set up.
as §6

Converted amounts (≈) assume the structure as drawn.

The term LC50 denotes the concentration lethal to half of the exposed cells or organisms. With `CNC(=O)/C(=N/OC)c1ccccc1CO/N=C(C)/C=C/c1c(Cl)cccc1Cl` [SYP-1620], the LC50 in [1] (A = compound I-72, B = SYP-1620, 72 hours) amounted to 361.2037 µg/mL.

For `C[C@]1(COC(=O)C2CC2)[C@@H]2C[C@H](O)[C@@]3(C)Oc4cc(-c5cccnc5)oc(=O)c4[C@H](O)[C@@H]3[C@@]2(C)CC[C@@H]1OC(=O)C1CC1` [afidopyropen], the LC50 in [2] is 2.8361 µg/mL.

With `CCn1nc(C)cc1/C(OC(=O)C(C)(C)C)=C(/C#N)c1ccc(C(C)(C)C)cc1` [cyetpyrafen], the LC50 in [3] is 0.6118 µg/mL.

With `N#CCNC(=O)c1cnccc1C(F)(F)F` [flonicamid], the LC50 in data set [4] was 2.3954 µg/mL; in [5] it was 50.8013 µg/mL.

With `N#Cc1c[nH]cc1-c1cccc2c1OC(F)(F)O2` [fludioxonil], in [1] (Agrotis ipsilon, A = compound I-72, B = fludioxonil, 72 hours, read-out: LC50), the median lethal concentration (LC50) worked out at 391 µg/mL.

In turn, `COCC(=O)N(c1c(C)cccc1C)[C@H](C)C(=O)OC` [metalaxyl-M] yielded an LC50 in data set [6] of 401.2975 µg/mL (≈ 1440 µM).

For the molecule `CC1=NNC(=O)N(/N=C/c2cccnc2)C1` [pymetrozine], the LC50 in data set [7] was found to be 5.51 µg/mL; in data set [8], 300 µg/mL.

With `COC(=O)N(OC)c1ccccc1COc1ccn(-c2ccc(Cl)cc2)n1` [pyraclostrobin], the LC50 in data set [9] came out at 424 µg/mL.

As to `CC(C)(C)c1ccc(CSc2cnn(C(C)(C)C)c(=O)c2Cl)cc1` [pyridaben], in data set [10], the LC50 worked out at 10.8 µg/mL.

For `CC(=O)N1C(=O)N(NCc2cccnc2)Cc2cc(C(F)(C(F)(F)F)C(F)(F)F)ccc21` [pyrifluquinazon], in data set [11], the LC50 turned out to be 10.6205 µg/mL.

Turning to `O=c1c(-c2cccc(C(F)(F)F)c2)c([O-])[n+](Cc2cncnc2)c2ccccn12` [triflumezopyrim], the 50% lethal concentration (LC50) in data set [12] is 0.8838 µg/mL.
